Measurements published in ChEMBL document CHEMBL3879907, “8-azabicyclo[3.2.1]octane compounds as mu opioid receptor antagonists” (2014).

What was measured:
[1] = biological target: Delta-type opioid receptor (Homo sapiens, UniProt P41143); experiment: Displacement of [3H]-diprenorphine from human delta opioid receptor expressed in cell membranes
[2] = biological target: Mu-type opioid receptor (Homo sapiens) (UniProt P35372); experiment: Intrinsic activity at human mu opioid receptor expressed in CHOK1 cell membranes at 0.00001 to 20 uM after 30 mins by GTP-Eu nucleotide exchange assay relative to DAMGO; format: functional; conditions: CHO-K1
Sequence of Mu-type opioid receptor (Homo sapiens) (P35372 whole entry): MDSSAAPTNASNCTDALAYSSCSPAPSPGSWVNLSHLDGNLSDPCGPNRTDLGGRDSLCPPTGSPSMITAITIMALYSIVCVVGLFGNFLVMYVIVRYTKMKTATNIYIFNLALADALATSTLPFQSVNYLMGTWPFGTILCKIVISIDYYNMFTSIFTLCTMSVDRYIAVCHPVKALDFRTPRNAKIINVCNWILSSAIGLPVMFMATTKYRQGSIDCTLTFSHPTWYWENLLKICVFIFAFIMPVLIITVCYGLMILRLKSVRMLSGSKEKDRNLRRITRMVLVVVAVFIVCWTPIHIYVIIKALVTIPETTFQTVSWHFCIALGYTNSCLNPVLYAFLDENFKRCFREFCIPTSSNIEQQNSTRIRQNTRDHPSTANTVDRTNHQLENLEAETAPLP

[3] = biological target: Kappa-type opioid receptor (Cavia porcellus, UniProt P41144); experiment: Displacement of [3H]-diprenorphine from guinea pig kappa opioid receptor expressed in CHOK1 cell membranes; conditions: cho-k1
Sequence of Kappa-type opioid receptor (P41144 whole entry): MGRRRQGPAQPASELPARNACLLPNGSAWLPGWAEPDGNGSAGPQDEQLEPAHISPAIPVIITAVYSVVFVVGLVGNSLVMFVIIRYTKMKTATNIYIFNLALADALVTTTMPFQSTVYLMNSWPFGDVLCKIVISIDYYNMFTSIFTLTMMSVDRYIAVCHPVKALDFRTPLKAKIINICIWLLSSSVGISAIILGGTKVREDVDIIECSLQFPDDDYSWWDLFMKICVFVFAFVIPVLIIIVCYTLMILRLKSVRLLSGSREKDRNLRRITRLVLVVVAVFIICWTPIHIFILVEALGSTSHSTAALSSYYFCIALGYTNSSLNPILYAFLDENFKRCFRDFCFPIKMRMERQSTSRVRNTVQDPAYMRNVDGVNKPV

Sequence of Delta-type opioid receptor (P41143 whole entry): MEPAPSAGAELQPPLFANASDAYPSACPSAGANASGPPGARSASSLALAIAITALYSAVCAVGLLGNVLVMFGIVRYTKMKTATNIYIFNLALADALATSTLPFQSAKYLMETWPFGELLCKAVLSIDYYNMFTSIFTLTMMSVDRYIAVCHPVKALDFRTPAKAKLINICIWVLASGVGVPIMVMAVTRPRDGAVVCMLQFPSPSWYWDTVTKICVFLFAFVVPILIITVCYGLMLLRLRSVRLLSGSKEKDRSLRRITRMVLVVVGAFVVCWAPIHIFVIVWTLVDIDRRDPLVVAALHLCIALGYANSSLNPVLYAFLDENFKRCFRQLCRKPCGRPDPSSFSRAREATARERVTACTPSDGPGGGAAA

Row | SMILES | pKi [1] | Intrinsic activity [2] | pKi [3]
1 | CS(=O)(=O)CC(=O)N(CCN1[C@@H]2CC[C@H]1C[C@@H](c1cccc(C(N)=O)c1)C2)CC1CCC1.O=C(O)C(F)(F)F | 7 to 10.5 | < 40% | 7 to 10.5
2 | COCC(=O)N(CCN1[C@@H]2CC[C@H]1C[C@@H](c1cccc(C(N)=O)c1)C2)CC1CCCCC1.O=C(O)C(F)(F)F | 7 to 10.5 | < 40% | 7 to 10.5
3 | CC(C)CC(=O)N(Cc1ccccc1)[C@H](C)CN1[C@@H]2CC[C@H]1C[C@@H](c1cccc(O)c1)C2 | 7 to 10.5 | < 40% | 7 to 10.5
4 | NC(=O)c1cccc([C@H]2C[C@H]3CC[C@@H](C2)N3CCN(CCc2ccccc2)C(=O)[C@@H](O)CO)c1.O=C(O)C(F)(F)F | 7 to 10.5 | < 40% | 7 to 10.5
5 | O=C([C@@H](O)Cc1ccccc1)N(CCN1[C@@H]2CC[C@H]1C[C@@H](c1cccc(O)c1)C2)CC1CCCCC1 | 7 to 10.5 | < 40% | 7 to 10.5
6 | C[C@H](CN1[C@@H]2CC[C@H]1C[C@@H](c1cccc(O)c1)C2)N(Cc1ccccc1)C(=O)C1CC1 | 7 to 10.5 | < 40% | 7 to 10.5
7 | NC(=O)c1cccc([C@H]2C[C@H]3CC[C@@H](C2)N3CCCN(CC2CCCCC2)C(=O)CO)c1 | 7 to 10.5 | < 40% | 7 to 10.5
8 | COCC(=O)N(CCN1[C@@H]2CC[C@H]1C[C@@H](c1cccc(C(N)=O)c1)C2)Cc1ccccc1.O=C(O)C(F)(F)F | 7 to 10.5 | < 40% | 7 to 10.5
9 | CC(C)(C(=O)N(CCN1[C@@H]2CC[C@H]1C[C@@H](c1cccc(C(N)=O)c1)C2)CC1CCC1)S(C)(=O)=O.O=C(O)C(F)(F)F | 7 to 10.5 | < 40% | 7 to 10.5
10 | CC(C)(O)C(=O)N(CCN1[C@@H]2CC[C@H]1C[C@@H](c1cccc(C(N)=O)c1)C2)Cc1c(F)cccc1F.O=C(O)C(F)(F)F | 7 to 10.5 | < 40% | 7 to 10.5
11 | CCCCCNC(=O)N(CCN1[C@@H]2CC[C@H]1C[C@@H](c1cccc(C(N)=O)c1)C2)CC1CCCCC1 | 7 to 10.5 | < 40% | 7 to 10.5
12 | CN(C)S(=O)(=O)N(CCN1[C@@H]2CC[C@H]1C[C@@H](c1cccc(C(N)=O)c1)C2)Cc1c(F)cccc1F.O=C(O)C(F)(F)F | 7 to 10.5 | < 40% | 7 to 10.5
13 | NC(=O)c1cccc([C@H]2C[C@H]3CC[C@@H](C2)N3CCN(CC2CCCCC2)C(=O)C2(O)CC2)c1.O=C(O)C(F)(F)F | 7 to 10.5 | < 40% | 7 to 10.5
14 | CC(C)(C)C(=O)N(CCN1[C@@H]2CC[C@H]1C[C@@H](c1cccc(C(N)=O)c1)C2)Cc1ccccc1.O=C(O)C(F)(F)F | 7 to 10.5 | < 40% | 7 to 10.5
15 | CC(=O)N(CCN1[C@@H]2CC[C@H]1C[C@@H](c1cccc(O)c1)C2)CC1CCCCC1 | 7 to 10.5 | < 40% | 7 to 10.5
16 | CN(C)S(=O)(=O)N(CCN1[C@@H]2CC[C@H]1C[C@@H](c1cccc(C(N)=O)c1)C2)CC1CCCCC1.O=C(O)C(F)(F)F | 7 to 10.5 | < 40% | 7 to 10.5
17 | CC(C)(C)C(=O)N(CCN1[C@@H]2CC[C@H]1C[C@@H](c1cccc(C(N)=O)c1)C2)Cc1c(F)cccc1F.O=C(O)C(F)(F)F | 7 to 10.5 | < 40% | 7 to 10.5
18 | CC1(C)C(CN(CCN2[C@@H]3CC[C@H]2C[C@@H](c2cccc(C(N)=O)c2)C3)C(=O)CO)C1(C)C | 7 to 10.5 | < 40% | 7 to 10.5
19 | C[C@H](CN1[C@@H]2CC[C@H]1C[C@@H](c1cccc(O)c1)C2)N(Cc1ccccc1)C(=O)C1CCCCC1 | 7 to 10.5 | < 40% | 7 to 10.5
20 | NC(=O)c1cccc([C@H]2C[C@H]3CC[C@@H](C2)N3CCN(Cc2cccc(F)c2)C(=O)CO)c1.O=C(O)C(F)(F)F | 7 to 10.5 | < 40% | 7 to 10.5
21 | CC(C)C[C@H](O)C(=O)N(CCN1[C@@H]2CC[C@H]1C[C@@H](c1cccc(C(N)=O)c1)C2)Cc1c(F)cccc1F.O=C(O)C(F)(F)F | 7 to 10.5 | < 40% | 7 to 10.5
22 | CN(C)[C@@H](Cc1ccccc1)C(=O)N(CCN1[C@@H]2CC[C@H]1C[C@@H](c1cccc(O)c1)C2)CC1CCCCC1 | 7 to 10.5 | < 40% | 7 to 10.5
23 | CC(C)CC(=O)N(CCN1[C@@H]2CC[C@H]1C[C@@H](c1cccc(O)c1)C2)CC1CCCCC1 | 7 to 10.5 | < 40% | 7 to 10.5
24 | NC(=O)c1cccc([C@H]2C[C@H]3CC[C@@H](C2)N3CCN(CC2CCCCC2)C(=O)C[C@H](O)CO)c1.O=C(O)C(F)(F)F | 7 to 10.5 | < 40% | 7 to 10.5
25 | O=C([C@@H](O)c1ccccc1)N(CCN1[C@@H]2CC[C@H]1C[C@@H](c1cccc(O)c1)C2)CC1CCCCC1 | 7 to 10.5 | < 40% | 7 to 10.5
26 | O=C([C@H](O)C1CCCCC1)N(CCN1[C@@H]2CC[C@H]1C[C@@H](c1cccc(O)c1)C2)CC1CCCCC1 | 7 to 10.5 | < 40% | 7 to 10.5

Row | SMILES | pKi [1] | Intrinsic activity [2] | pKi [3]
27 | CC(C)(O)C(=O)N(CCCN1[C@@H]2CC[C@H]1C[C@@H](c1cccc(C(N)=O)c1)C2)Cc1ccccc1.O=C(O)C(F)(F)F | 7 to 10.5 | < 40% | 7 to 10.5
28 | NC(=O)c1cccc([C@H]2C[C@H]3CC[C@@H](C2)N3CCN(CC2CCC(F)(F)CC2)C(=O)[C@H](O)CO)c1.O=C(O)C(F)(F)F | 7 to 10.5 | < 40% | 7 to 10.5
29 | CS(=O)(=O)CC(=O)N(CCc1ccc(O)cc1)CCN1[C@@H]2CC[C@H]1C[C@@H](c1cccc(C(N)=O)c1)C2.O=C(O)C(F)(F)F | 7 to 10.5 | < 40% | 7 to 10.5
30 | O=C(NCc1ccc(F)cc1)N(CCN1[C@@H]2CC[C@H]1C[C@@H](c1cccc(O)c1)C2)CC1CCCCC1 | 7 to 10.5 | < 40% | 7 to 10.5
31 | NC(=O)c1cccc([C@H]2C[C@H]3CC[C@@H](C2)N3CCN(Cc2c(F)cccc2F)C(=O)[C@@H](O)Cc2ccccc2)c1.O=C(O)C(F)(F)F | 7 to 10.5 | < 40% | 7 to 10.5
32 | NC(=O)c1cccc([C@H]2C[C@H]3CC[C@@H](C2)N3CCN(Cc2c(F)cccc2F)C(=O)[C@@H](O)CO)c1.O=C(O)C(F)(F)F | 7 to 10.5 | < 40% | 7 to 10.5
33 | CN(C)CCCC(=O)N(CCN1[C@@H]2CC[C@H]1C[C@@H](c1cccc(C(N)=O)c1)C2)CC1CCCCC1 | 7 to 10.5 | < 40% | 7 to 10.5
34 | CC(C)C[C@H](O)C(=O)N(CCN1[C@@H]2CC[C@H]1C[C@@H](c1cccc(O)c1)C2)CC1CCCCC1 | 7 to 10.5 | < 40% | 7 to 10.5
35 | CN(C)CC[C@H](O)C(=O)N(CCN1[C@@H]2CC[C@H]1C[C@@H](c1cccc(C(N)=O)c1)C2)CC1CCC(F)(F)CC1.O=C(O)C(F)(F)F.O=C(O)C(F)(F)F | 7 to 10.5 | < 40% | 7 to 10.5
36 | O=C(O)CS(=O)(=O)CC(=O)N(CCN1[C@@H]2CC[C@H]1C[C@@H](c1cccc(O)c1)C2)CC1CCCCC1 | 7 to 10.5 | < 40% | 7 to 10.5
37 | CN(C)CC[C@H](O)C(=O)N(CCN1[C@@H]2CC[C@H]1C[C@@H](c1cccc(C(N)=O)c1)C2)CC1CCCCC1 | 7 to 10.5 | < 40% | 7 to 10.5
38 | C[C@H](CN1[C@@H]2CC[C@H]1C[C@@H](c1cccc(O)c1)C2)N(Cc1ccccc1)C(=O)CCC(=O)O | 7 to 10.5 | < 40% | 7 to 10.5
39 | CC(=O)OCC(=O)N(CCN1[C@@H]2CC[C@H]1C[C@@H](c1cccc(O)c1)C2)Cc1ccccc1.O=C(O)C(F)(F)F | 7 to 10.5 | < 40% | 7 to 10.5
40 | CC(C)(C)OCC(=O)N(CCN1[C@@H]2CC[C@H]1C[C@@H](c1cccc(C(N)=O)c1)C2)Cc1c(F)cccc1F.O=C(O)C(F)(F)F | 7 to 10.5 | < 40% | 7 to 10.5
41 | C[C@H](CN1[C@@H]2CC[C@H]1C[C@@H](c1cccc(O)c1)C2)N(Cc1ccccc1)C(=O)Cc1ccccc1 | 7 to 10.5 | < 40% | 7 to 10.5
42 | O=C(CO)N(CCN1[C@@H]2CC[C@H]1C[C@@H](c1cccc(O)c1)C2)Cc1ccccc1 | 7 to 10.5 | – | 7 to 10.5
43 | CC(=O)N(CCN1[C@@H]2CC[C@H]1C[C@@H](c1cccc(C(N)=O)c1)C2)CC12CC3CC(CC(C3)C1)C2 | – | < 40% | –
44 | CC(O)C(=O)N(CCN1[C@@H]2CC[C@H]1C[C@@H](c1cccc(C(N)=O)c1)C2)Cc1ccccc1 (stereo partly specified) | – | < 40% | –
45 | NC(=O)c1cccc([C@H]2C[C@H]3CC[C@@H](C2)N3CCN(CC23CC4CC(CC(C4)C2)C3)C(=O)CO)c1 | – | < 40% | –
46 | CS(=O)(=O)CC(=O)N(CCc1ccccc1)CCN1[C@@H]2CC[C@H]1C[C@@H](c1cccc(C(N)=O)c1)C2.O=C(O)C(F)(F)F | 7 to 10.5 | – | 7 to 10.5
47 | NC(=O)c1cccc([C@H]2C[C@H]3CC[C@@H](C2)N3CCN(CC2CCC(F)CC2)C(=O)CO)c1 (stereo partly specified) | – | < 40% | –
48 | O=C(O)c1cccc([C@H]2C[C@H]3CC[C@@H](C2)N3CCN(CC2CCCCC2)C(=O)[C@@H](O)CO)c1 | – | < 40% | –
49 | NC(=O)c1cccc([C@H]2C[C@H]3CC[C@@H](C2)N3CCN(CC23CC4CC(CC(O)(C4)C2)C3)C(=O)[C@@H](O)CO)c1 | – | < 40% | –
50 | NC(=O)c1cccc([C@H]2C[C@H]3CC[C@@H](C2)N3CCN(CC23CC4CC(CC(O)(C4)C2)C3)C(=O)CO)c1 | – | < 40% | –
51 | CS(=O)(=O)CC(=O)N(CCN1[C@@H]2CC[C@H]1C[C@@H](c1cccc(C(N)=O)c1)C2)CC1CCC(C(F)(F)F)CC1 (stereo partly specified) | – | < 40% | –
52 | COC(=O)CCC(=O)N(CCN1[C@@H]2CC[C@H]1C[C@@H](c1cccc(O)c1)C2)Cc1ccccc1 | – | < 40% | –
